Assay results from US12564638B2 (SHANGHAITECH UNIVERSITY, priority 2019, dated 2026).
Read-outs that look alike come from different tables or passages of the source. Values belong to the compound of their own block, whether it stands above or below them.

Legend:
Format in all cases: cell-based
[1] = test system: HCC827 cells (EGFR Exon19 del, non-small cell lung cancer cells); experiment: Cell viability assay (WST/CCK8), HCC827 cells; details: Homo sapiens, HCC827, 72 h, read-out: IC50 (half inhibitory concentration)
Method in brief: (§1)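 Plated 3 000 cells/well in complete RPMI1640 the day before dosing; controls were DMSO (negative) and EGFR TKIs (positive).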

[2] = test system: PC9 cells (EGFR Exon 19 del, non-small cell lung cancer cells); experiment: Cell viability assay (WST/CCK8), PC9 cells; details: Homo sapiens, read-out: IC50 (half inhibitory concentration)
Method in brief: as §1

[3] = test system: H1975 (EGFR T790M+L858R mutation, non-small cell lung cancer cell line); experiment: Cell viability assay (WST/CCK8), H1975 cells; details: Homo sapiens, NCI-H1975, read-out: IC50 (half inhibitory concentration)
Text: (§2) The cell lines with abnormal EGFR expression used are as follows: • HCC827 cells (EGFR Exon19 del, non-small cell lung cancer cells); • PC9 cells (EGFR Exon 19 del, non-small cell lung cancer cells); • PC9BracA1 (EGFR Exon 19 del+T790M, non-small cell lung cancer cells) • H1975 (EGFR Exon T790M+L858R mutation, non-small cell lung cancer cell line) • BT474 cells (HER2 positive breast cancer cells)
(§3) All of the half inhibitory concentrations (IC50) of these compounds of the present invention were determined with WST reagent from Fuyuan Biotec Company. The specific experiment procedures are as follows: Cancer cells were planted in 96-well-plate at the density of 3 000 cells per well with 100 μL RPMI1640 completed culture medium. In the next day, compounds with indicated concentrations were added to the cells, DMSO was used as the negative control and the EGFR TKIs were used to treat cells as the positive groups. After 72 hours drug treatment, cell viability was measured by using the WST reagent following the instructions.

[4] = test system: PC9BracA1 (EGFR Exon 19 del+T790M, non-small cell lung cancer cells); experiment: Cell viability assay (WST/CCK8), PC9Brac1 cells; details: 72 hours, WST, read-out: IC50 (half inhibitory concentration)
Text: as §2, §3

[5] = test system: BT474 cells (HER2 positive breast cancer cells); experiment: Cell viability assay (CCK8), BT474 cells; details: Homo sapiens, BT-474, Table 10, BT474, 72 hours, read-out: IC50 (half inhibitory concentration)
Text: as §2
as §3, with “instructions. The growth inhibition curve of the compounds on cells were plotted by Prism GraphPad, and the compounds IC50 calculated from it.” for “instructions.”
The cell viability assays were taken to determine the anti-tumor activity of these indicated compounds in BT474 cells, which can overexpress HER2 protein. The cells were treated with the gradient concentration of these compounds (the maximum concentration: 10 μM; 3-fold dilution ratio, 10 concentration gradients) for 72 hours and then incubated with the CCK8 reagent to determine the cell viability.

[6] = HCC827 (Exon19 Del), 72 hours, WST (CCK8)
[7] = PC-9, PC9 (Exon19 Del), 72 hours, WST (CCK8)
[8] = H1975 (L858R + T790M), 72 hours, WST
[9] = Table 6, canertinib-based compounds, HCC827 (Exon19 Del), 72 hours, WST
[10] = PC-9, Table 6, canertinib-based compounds, PC9 (Exon19 Del), 72 hours, WST
[11] = Table 8, osimertinib-based compounds, HCC827, 72 hours, WST
[12] = Table 8, osimertinib-based compounds, Pc9Brc1
[13] = Table 8, osimertinib-based compounds, H1975, 72 hours, WST

SMILES: COc1cc2ncnc(Nc3ccc(F)c(Cl)c3)c2cc1NC(=O)/C=C/CN1CCC(NC(=O)CCCNc2cccc3c2C(=O)N(C2CCC(=O)NC2=O)C3=O)CC1 (stereo not drawn) [SIAIS249083, (E)-N-(4-((3-chloro-4-fluorophenyl)amino)-7-methoxyquinazolin-6-yl)-4-(4-(4-((2-(2,6-dioxopiperidin-3-yl)-1,3-dioxoisoindolin-4-yl)amino)butanamido)piperidin-1-yl)but-2-enamide]
IC50 [1, 6]: 5 nM
IC50 [2, 7]: 2.9 nM
IC50 ([4]; PC9Brac1 (Ex19del + T790M)): 435 nM
IC50 [5]: 64.9 nM

SMILES: COc1cc2ncnc(Nc3ccc(F)c(Cl)c3)c2cc1NC(=O)/C=C/CN1CCC(NC(=O)CCCCCNc2cccc3c2C(=O)N(C2CCC(=O)NC2=O)C3=O)CC1 (stereo not drawn) [SIAIS249084, (E)-N-(1-(4-((4-((3-chloro-4-fluorophenyl)amino)-7-methoxyquinazolin-6-yl)amino)-4-oxobut-2-en-1-yl)piperidin-4-yl)-6-((2-(2,6-dioxopiperidin-3-yl)-1,3-dioxoisoindolin-4-yl)amino)hexanamide]
IC50 [1, 6]: 3 nM
IC50 [2, 7]: 0.6 nM
IC50 ([4]; PC9Brac1 (Ex19del + T790M)): 434 nM
IC50 [5]: 6.08 nM

SMILES: COc1cc2ncnc(Nc3ccc(F)c(Cl)c3)c2cc1NC(=O)/C=C/CN1CCC(N2CCNCC2)CC1 [SIAIS262021, (E)-N-(4-((3-chloro-4-fluorophenyl)amino)-7-methoxyquinazolin-6-yl)-4-(4-(piperazin-1-yl)piperidin-1-yl)but-2-enamide]
IC50 ([4]; PC9Brac1 (Ex19del + T790M)): 954 nM
IC50 [5]: 32.6 nM

SMILES: COc1cc2ncnc(Nc3ccc(F)c(Cl)c3)c2cc1NC(=O)/C=C/CN1CCC(N2CCN(C(=O)CSc3cccc4c3CN(C3CCC(=O)NC3=O)C4=O)CC2)CC1 (stereo not drawn) [SIAIS262034, (E)-N-(4-((3-chloro-4-fluorophenyl)amino)-7-methoxyquinazolin-6-yl)-4-(4-(4-(2-((2-(2,6-dioxopiperidin-3-yl)-1-oxoisoindolin-4-yl)thio)acetyl)piperazin-1-yl)piperidin-1-yl)but-2-enamide]
IC50 [1, 6]: 3.6 nM
IC50 [2, 7]: 11.3 nM
IC50 [3, 8]: 828 nM

SMILES: C=CC(=O)Nc1cc2c(Nc3ccc(F)c(Cl)c3)ncnc2cc1OCCCN1CCC(N2CCN(C(=O)CCCCSc3cccc4c3CN(C3CCC(=O)NC3=O)C4=O)CC2)CC1 (stereo not drawn) [SIAIS262175, N-(4-((3-chloro-4-fluorophenyl)amino)-7-(3-(4-(4-(5-((2-(2,6-dioxopiperidin-3-yl)-1-oxoisoindolin-4-yl)thio)pentanoyl)piperazin-1-yl)piperidin-1-yl)propoxy)quinazolin-6-yl)acrylamide]
IC50 [1, 9]: 6.7 nM
IC50 [2, 10]: 17 nM
IC50 ([3]; Table 7, canertinib-based compounds, H1975 (L858R + T790M)): 430 nM
IC50 [5]: 22.5 nM

SMILES: C=CC(=O)Nc1cc(Nc2nccc(-c3cn(C)c4ccccc34)n2)c(OC)cc1N(C)CCN(C)C(=O)CCCCCSc1cccc2c1CN(C1CCC(=O)NC1=O)C2=O (stereo not drawn) [SIAIS337056, N-(2-((2-acrylamido-5-methoxy-4-((4-(1-methyl-1H-indol-3-yl)pyrimidin-2-yl)amino)phenyl)(methyl)amino)ethyl)-6-((2-(2,6-dioxopiperidin-3-yl)-1-oxoisoindolin-4-yl)thio)-N-methylhexanamide]
IC50 [1, 11]: 114 nM
IC50 [4, 12]: 973 nM

SMILES: C=CC(=O)Nc1cc(Nc2nccc(-c3cn(C)c4ccccc34)n2)c(OC)cc1N(C)CCN(C)C(=O)CCCCCCSc1cccc2c1CN(C1CCC(=O)NC1=O)C2=O (stereo not drawn) [SIAIS337057, N-(2-((2-acrylamido-5-methoxy-4-((4-(1-methyl-1H-indol-3-yl)pyrimidin-2-yl)amino)phenyl)(methyl)amino)ethyl)-7-((2-(2,6-dioxopiperidin-3-yl)-1-oxoisoindolin-4-yl)thio)-N-methylheptanamide]
IC50 [1, 11]: 47.7 nM
IC50 [3, 13]: 21 nM

SMILES: C=CC(=O)Nc1cc(Nc2nccc(-c3cn(C)c4ccccc34)n2)c(OC)cc1N(C)CCN(C)C(=O)CCCCCCCCCSc1cccc2c1CN(C1CCC(=O)NC1=O)C2=O (stereo not drawn) [SIAIS337060, N-(2-((2-acrylamido-5-methoxy-4-((4-(1-methyl-1H-indol-3-yl)pyrimidin-2-yl)amino)phenyl)(methyl)amino)ethyl)-10-((2-(2,6-dioxopiperidin-3-yl)-1-oxoisoindolin-4-yl)thio)-N-methyldecanamide]
IC50 [1, 11]: 122 nM
IC50 [3, 13]: 171 nM

SMILES: C=CC(=O)N1CCC(Oc2cc3c(Nc4ccc(Cl)c(Cl)c4F)ncnc3cc2OC)CC1 [poziotinib, reference compound]
IC50 [1, 6]: 0.5 nM
IC50 ([1]; Table 3, poziotinib-based compounds, HCC827 (Exon19 Del), 72 hours, WST (CCK8)): 0.5 nM
IC50 ([2]; PC-9, Table 3, poziotinib-based compounds, PC9 (Exon 19 Del), 72 hours, WST (CCK8)): < 0.1 nM
IC50 [5]: < 0.1 nM

Next, values leading:

IC50 [1, 6]: 12 nM
IC50 [2, 7]: 32.6 nM
IC50 [3, 8]: 114 nM
SMILES: COc1cc2ncnc(Nc3ccc(F)c(Cl)c3)c2cc1NC(=O)/C=C/CN1CCC(NC(=O)CNc2cccc3c2C(=O)N(C2CCC(=O)NC2=O)C3=O)CC1 (stereo not drawn) [SIAIS249081, (E)-N-(4-((3-chloro-4-fluorophenyl)amino)-7-methoxyquinazolin-6-yl)-4-(4-(2-((2-(2,6-dioxopiperidin-3-yl)-1,3-dioxoisoindolin-4-yl)amino)acetamido)piperidin-1-yl)but-2-enamide]

IC50 [1, 9]: 14.3 nM
IC50 [2, 10]: 15.9 nM
IC50 [5]: 42.1 nM
SMILES: C=CC(=O)Nc1cc2c(Nc3ccc(F)c(Cl)c3)ncnc2cc1OCCCN1CCN(C(=O)CCCC(=O)N[C@H](C(=O)N2C[C@H](O)C[C@H]2C(=O)NCc2ccc(-c3scnc3C)cc2)C(C)(C)C)CC1 [SIAIS262128, (2S,4R)-1-((S)-2-(5-(4-(3-((6-acrylamido-4-((3-chloro-4-fluorophenyl)amino)quinazolin-7-yl)oxy)propyl)piperazin-1-yl)-5-oxopentanamido)-3,3-dimethylbutanoyl)-4-hydroxy-N-(4-(4-methylthiazol-5-yl)benzyl)pyrrolidine-2-carboxamide]

IC50 [1, 6]: 1.1 nM
IC50 [2, 7]: 13 nM
IC50 [5]: 51.5 nM
SMILES: COc1cc2ncnc(Nc3ccc(F)c(Cl)c3)c2cc1NC(=O)/C=C/CN1CCC(N2CCN(Cc3ccc(CNc4cccc5c4CN(C4CCC(=O)NC4=O)C5=O)cc3)CC2)CC1 (stereo not drawn) [SIAIS337024, (E)-N-(4-((3-chloro-4-fluorophenyl)amino)-7-methoxyquinazolin-6-yl)-4-(4-(4-(4-(((2-(2,6-dioxopiperidin-3-yl)-1-oxoisoindolin-4-yl)amino)methyl)benzyl)piperazin-1-yl)piperidin-1-yl)but-2-enamide]

IC50 [1, 11]: 353 nM
IC50 ([2]; PC-9, Table 8, osimertinib-based compounds, PC9, 72 hours, WST): 271 nM
IC50 [4, 12]: 686 nM
SMILES: C=CC(=O)Nc1cc(Nc2nccc(-c3cn(C)c4ccccc34)n2)c(OC)cc1N(C)CCN(C)CCCCCCCCSc1cccc2c1CN(C1CCC(=O)NC1=O)C2=O (stereo not drawn) [SIAIS337084, N-(2-((2-((8-((2-(2,6-dioxopiperidin-3-yl)-1-oxoisoindolin-4-yl)thio)octyl)(methyl)amino)ethyl)(methyl)amino)-4-methoxy-5-((4-(1-methyl-1H-indol-3-yl)pyrimidin-2-yl)amino)phenyl)acrylamide]

IC50 [1]: 0.7 nM
IC50 ([2]; PC-9, 72 h): 0.9 nM
IC50 [5]: 17.5 nM
SMILES: C=CC(=O)Nc1cc2c(Nc3ccc(F)c(Cl)c3)ncnc2cc1OCCCN1CCOCC1 [canertinib, reference compound]
